“Also recorded” adds a separate entry of the source.
Key:
[1] = cited from earlier work
[2] = Stability of aqueous gallium complex solutions with pH; format: physicochemical; conditions: solution of 2×10^−3 M
[3] = test system: Streptococcus pneuomoniae; test: Antibacterial activity by optical density of cultures with serial dilution of the compounds; format: cell-based; conditions: pH 5.9, 18 hours
Method: (§1) The antibacterial activities of three complexes against six oral bacteria at pH 5.9 were tested by measuring the optical density (OD, at 600 nm) of the cultures in […] of different bacteria with the presence of serial dilution of the compounds (10^−2M-7.81×10^−5M) after culture at 5% CO2 under 37° C. for 18 hours. The midpoint concentration (IC 50) was determined at the concentration that corresponds to 50% of maximum OD. The minimum inhibition concentration (MIC) was determined at the concentration that corresponds to 10% or less of OD of the control (without any gallium compound).

[4] = test system: Streptococcus sobrinus; test: as above; format: cell-based; conditions: pH 5.9, 18 hours
Method: as §1

[5] = test system: Pseudomonas aeruginosa; test: as above; format: cell-based; conditions: pH 5.9, 18 hours
Method: as §1

[6] = test system: Lactobacillus casei; test: as above; format: cell-based; conditions: pH 5.9, 18 hours
Method: as §1

[7] = test system: Streptococcus mutans; test: as above; format: cell-based; conditions: pH 5.9, 18 hours
Method: as §1

[8] = test system: Actinomyces naeslundii; test: as above; format: cell-based; conditions: pH 5.9, 18 hours
Method: as §1

[9] = Gallium release from composite discs, spectrophotometric method; conditions: 15% chelate in the monomer; deionized water pH=7.0; 4 days (FIG. 13)
[10] = 37° C., 5% CO2, OD at 600 nm, read-out: Midpoint concentration (IC50)
[11] = 10% or less of OD of the control

For [Ga+3].[Ga+3].[O-2].[O-2].[O-2] [Ga2O3, gallium oxide], the “solubility in water (words)” value [1] is given as “insoluble in water”.

In the case of [Ga+3].[OH-].[OH-].[OH-] [Ga(OH)3], the “solubility in water (words)” value [1] is listed as “sparingly soluble; also recorded: low solubility in water” and the “Ksp=[Ga^3+][OH^−]^3” value ([1]; in water) is listed as 3.28×10^−36.

In the case of [F][Ga]([F])[F] [GaF3, gallium trifluoride], the solubility in water [1] is given as 15.8 µM and the “solubility in water (words)” value [1] is given as “sparingly soluble”.

With [F][Ga-2]([F])([F])([F])[F].[Na+].[Na+] [Na2GaF5] the “pH up to which the solution is stable” value [2] was no more than 5.9, the IC50 [3, 10] was 1880 µM and the “Minimum Inhibition Concentration (MIC)” value [3, 11] was 5000 µM. The IC50 [4, 10] was 1250 µM, the “Minimum Inhibition Concentration (MIC)” value [4, 11] was 5000 µM and the IC50 [5, 10] was greater than 1880 µM. For the same compound, the “Minimum Inhibition Concentration (MIC)” value [5, 11] was 50 µM, the IC50 [6, 10] was greater than 5000 µM and the “Minimum Inhibition Concentration (MIC)” value [6, 11] was >10^−2M. For the same compound, the IC50 [7, 10] was 1250 µM, the “Minimum Inhibition Concentration (MIC)” value [7, 11] was 2500 µM and the IC50 [8, 10] was 1880 µM. The “Minimum Inhibition Concentration (MIC)” value [8, 11] was 2500 µM.

In the case of C=C(C)C(=O)OCCOc1ccc(C(C)(CCC(=O)NCCCCC(C(=O)[O-])N(CC(=O)[O-])CC(=O)O)c2ccc(OCCOC(=O)C(=C)C)cc2)cc1.F.[F-].[Ga+3] (stereo not shown) [ternary gallium fluoride chelate, monogallium(III) mono(2,2′-((5-(4,4-bis(4-(2-(methacryloyloxy)ethoxy)phenyl)pentanamido)-1-carboxylatopentyl)azanediyl)diacetate) monofluoride hydrofluoride], the “amount of gallium ion released compared with those without the chelate” value [9] is reported as “nearly double”.

From US11617369B2, “Antimicrobial gallium compounds and methods” (The Board of Supervisors of Louisiana State University and …, priority 2018, dated 2023)
